17 compounds from patent US4782074A (priority 1987, dated 1988) can be followed below.

Structures are written as SMILES.

Holding throughout (type): in vivo
One assay relates to Erysiphe polygoni. In words: Bean Powdery Mildew control (Example A). The settings on record: 240 h, seedling bean plants, inoculated 1 day after spray, 10 days, relative to untreated check plants, read-out: % Control BPM. Here is the method:
The compounds of the invention were tested for the control of the Bean Powdery Mildew organism Erysiphe polygoni. Seedling bean plants were sprayed with a 250-ppm solution of the test compound in acetone, water and a nonionic emusifier. The sprayed plants were then inoculated 1 day later with the organism. The plants were maintained for 10 days at temperatures of 68° F. at night with daytime temperatures of 72° F. to 80° F.; relative humidity was maintained at 40% to 60%. The percent disease control provided by a given test compound was based on the percent disease reduction relative to the untreated check plants.

For the next assay, the system named is Plasmopara viticola. In words: Grape Downy Mildew control (Example E). The settings on record: detached grape leaves, cultivar Emperor, relative to untreated check plants, read-out: % Control GDM. The procedure:
The compounds of the invention were tested for the control of the Grape Downy Mildew organism Plasmopara viticola. Detached leaves, between 70 mm and 85 mm in diameter, 7-week-old Vitis vinifera cultivar Emperor grape seedlings were used as hosts. The leaves were sprayed with a 250-ppm solution of the test compound in acetone. The sprayed leaves were dried, inoculated with a spore suspension of the organism, placed in a humid environmental chamber and incubated at 66° F. to 68° F. and about 100% relative humidity. After incubation for 2 days, the plants were then held in a greenhouse 7 to 9 days; then the amount of disease control was determined. The percent disease control provided by a given test compound was based on the percent disease reduction relative to untreated check plants.

Assay [1] has as its system Alternaria solani conidia. In words: Tomato Early Blight control (Example D). The settings on record: 288 h, tomato seedlings, Bonny Best, inoculated 1 day after spray, relative to untreated check plants, read-out: % Control TEB. Here is the method: Compounds of the invention were tested for the control of the Tomato Early Blight organism Alternaria solani conidia. Tomato (variety Bonny Best) seedlings of 6- to 7-weeks old were used. The tomato plants were sprayed with a 250-ppm solution of the test compound in an acetone-and-water solution containing a small amount of a nonionic emulsifier. The sprayed plants were inoculated 1 day later with the organism, placed in the environmental chamber and incubated at 66° F. to 68° F. and 100% relative humidity for 24 hours. Following the incubation, the plants were maintained in a greenhouse for about 12 days. Percent disease control was based on the percent disease development on untreated check plants.

A further assay relates to Septoria apii. In words: whole plant or invertebrate. The settings on record: 336 h, read-out: % Control CLB.
A further assay relates to Phytophthora infestans. In words: whole plant or invertebrate. The settings on record: in Solanum lycopersicum, 168 h, read-out: % Control TLB.
The test system of another assay is Uromyces phaseoli tipica. In words: Leaf Rust / Bean Rust control (Example F). As to conditions: 336 h, pinto bean plants, rated after about 14 days, relative to untreated check plants, read-out: % Control BR. The procedure: The Leaf Rust test was made using pinto beans. The pathogen was Uromyces phaseoli tipica. The pinto bean plants were sprayed with a 250-ppm solution of the test compound in an acetone-water mixture containing a nonionic emulsifier. The treated plants were inoculated thereafter with the pathogen and then incubated in an environmental chamber for approximately 20 hours at 100% relative humidity and a temperature of 68° F. to 70° F. The plants were then removed from the chamber, allowed to dry, and then maintained in a greenhouse at a 60% to 80% relative humidity. The rate of infection on the leaves was made after about 14 days. The percent disease control provided by a given test compound was based on the percent disease reduction relative to untreated check plants.

The subject of another assay is Piricularia oryzae. In words: whole plant or invertebrate. The settings on record: Pyricularia oryzae, read-out: % Control RB.

`CCCN(CC(C)Cc1ccc(C(C)(C)C)cc1)C(=O)c1cccnc1` (centres unmarked) [Compound 23]: the pest or weed control at 250 ppm came to 100% in the assay on Erysiphe polygoni; 0% in the assay on Plasmopara viticola; 33% in assay [1]; 29% with Septoria apii; 7% in the assay on Phytophthora infestans; 0% in the assay with Uromyces phaseoli tipica. Moreover, the pest or weed control at 625 ppm with Piricularia oryzae amounted to 0%.
On to `CCCN(CCOc1c(Cl)cc(Cl)cc1Cl)C(=O)c1cccnc1` [Compound 1, N-(n-propyl), N-(3-pyridylcarbonyl)ethanolamine 2,4,6-trichlorophenylether], for which the pest or weed control at 250 ppm in the assay with Erysiphe polygoni was found to be 100%; in the assay on Plasmopara viticola it was 50%; in assay [1] it was 96%; in the assay on Septoria apii, 46%; with Phytophthora infestans it was 0%; in the assay with Uromyces phaseoli tipica, 0%. For the same compound, the pest or weed control at 625 ppm in the assay on Piricularia oryzae amounted to 86%.
As to `CCCN(CCOc1c(Cl)cc(Cl)cc1Cl)C(=O)c1cncn1C` [Compound 12, N-(n-propyl), N-(1-methyl-5-imidazolylcarbonyl)ethanolamine 2,4,6-trichlorophenylether], the pest or weed control at 250 ppm in the assay on Erysiphe polygoni was determined as 100%; with Plasmopara viticola, 19%; in assay [1], 36%; in the assay with Septoria apii, 45%; in the assay on Phytophthora infestans it was 18%; in the assay with Uromyces phaseoli tipica it was 29%. Further, in the assay on Piricularia oryzae, the pest or weed control at 625 ppm was determined as 0%.
As for `CCCN(CCOc1ccc(Cl)cc1Cl)C(=O)c1cnccn1` [Compound 7], the pest or weed control at 250 ppm came to 21% with Erysiphe polygoni; 13% in the assay with Plasmopara viticola; 0% in assay [1]; 15% with Septoria apii; 0% with Phytophthora infestans; 3% in the assay on Uromyces phaseoli tipica. Moreover, the pest or weed control at 625 ppm in the assay with Piricularia oryzae is 0%.
On to `CCCN(CCCc1ccc(Cl)cc1Cl)C(=O)c1cnccn1` [Compound 26], for which the pest or weed control at 250 ppm in the assay with Erysiphe polygoni was determined as 11%; with Plasmopara viticola, 13%; in assay [1] it was 0%; in the assay on Septoria apii it was 10%; in the assay with Phytophthora infestans, 4%; in the assay on Uromyces phaseoli tipica it was 3%. In the assay with Piricularia oryzae, the pest or weed control at 625 ppm was 21%.
For `CCN(CCOc1c(Cl)cc(Cl)cc1Cl)C(=O)c1cccnc1` [Compound 35], the pest or weed control at 250 ppm in the assay with Erysiphe polygoni amounted to 100%; with Plasmopara viticola it was 41%; in assay [1] it was 30%; with Septoria apii, 98%; in the assay with Phytophthora infestans it was 0%; with Uromyces phaseoli tipica, 0%. In the assay on Piricularia oryzae, the pest or weed control at 625 ppm turned out to be 96%.
With `CCCN(CCOc1c(Cl)cc(Cl)cc1Cl)C(=O)c1cnccn1` [Compound 3, N-(n-propyl), N-(2-pyrazinylcarbonyl)ethanolamine 2,4,6-trichlorophenylether], the pest or weed control at 250 ppm was determined as 100% in the assay on Erysiphe polygoni; 13% in the assay with Plasmopara viticola; 94% in assay [1]; 62% with Septoria apii; 0% with Phytophthora infestans; 19% in the assay with Uromyces phaseoli tipica. Moreover, the pest or weed control at 625 ppm in the assay with Piricularia oryzae worked out at 75%.
For the compound `CCCN(CCOc1c(Cl)cc(Cl)cc1Cl)C(=S)c1cccnc1` [Compound 17, N-(n-propyl), N-(3-pyridylthiocarbonyl)ethanolamine 2,4,6-trichlorophenylether], the pest or weed control at 250 ppm with Erysiphe polygoni was 100%; in the assay with Plasmopara viticola, 4%; in assay [1] it was 87%; in the assay with Septoria apii, 62%; with Phytophthora infestans, 0%; in the assay on Uromyces phaseoli tipica, 0%. For the same compound, in the assay with Piricularia oryzae, the pest or weed control at 625 ppm was 100%.
For `CCCN(Cc1c(Cl)cccc1Cl)C(=O)c1cnccn1` [Compound 28], the pest or weed control at 250 ppm in the assay on Erysiphe polygoni came to 92%; in the assay with Plasmopara viticola, 3%; in assay [1], 27%; in the assay with Septoria apii, 30%; in the assay on Phytophthora infestans it was 4%; in the assay on Uromyces phaseoli tipica it was 7%. Besides, in the assay on Piricularia oryzae, the pest or weed control at 625 ppm was 0%.
Consider `CCCN(CCCc1c(Cl)cccc1Cl)C(=O)c1cccnc1` [Compound 22, N-[3-(2,6-dichlorophenyl)propyl], N-(n-propyl)nicotine amide], for which the pest or weed control at 250 ppm worked out at 44% with Erysiphe polygoni; 7% in the assay on Plasmopara viticola; 88% in assay [1]; 38% in the assay with Septoria apii; 0% with Phytophthora infestans; 0% in the assay with Uromyces phaseoli tipica. The pest or weed control at 625 ppm with Piricularia oryzae was 0%.
`C=CCN(CCOc1c(Cl)cc(Cl)cc1Cl)C(=O)c1cccnc1` [Compound 32, N-allyl, N-(3-pyridylcarbonyl)ethanolamine 2,4,6-trichlorophenylether]: the pest or weed control at 250 ppm with Erysiphe polygoni is 4%; in the assay with Plasmopara viticola, 41%; in assay [1], 0%; in the assay with Septoria apii, 0%; with Phytophthora infestans it was 0%; in the assay on Uromyces phaseoli tipica, 0%. For the same compound, the pest or weed control at 625 ppm in the assay with Piricularia oryzae is 0%.
For the compound `CCN(CCOc1c(Cl)cc(Cl)cc1Cl)C(=O)c1cnccn1` [Compound 36], the pest or weed control at 250 ppm in the assay with Erysiphe polygoni turned out to be 75%; with Plasmopara viticola, 45%; in assay [1], 0%; in the assay with Septoria apii, 50%; in the assay with Phytophthora infestans it was 0%; in the assay with Uromyces phaseoli tipica, 0%. Further, the pest or weed control at 625 ppm in the assay on Piricularia oryzae was 0%.
In the case of `O=C(c1cccnc1)N(CCO)CCOc1c(Cl)cc(Cl)cc1Cl` [Compound 30], the pest or weed control at 250 ppm in the assay on Erysiphe polygoni amounted to 33%; in the assay on Plasmopara viticola, 54%; in assay [1], 17%; in the assay on Septoria apii it was 32%; in the assay on Phytophthora infestans it was 7%; in the assay on Uromyces phaseoli tipica, 0%. Further, in the assay on Piricularia oryzae, the pest or weed control at 625 ppm came out at 0%.
In the case of `CCCN(CCCc1ccc(Cl)cc1Cl)C(=O)c1cccnc1` [Compound 27], the pest or weed control at 250 ppm was 82% with Erysiphe polygoni; 0% with Plasmopara viticola; 57% in assay [1]; 35% with Septoria apii; 0% in the assay on Phytophthora infestans; 3% in the assay on Uromyces phaseoli tipica. Moreover, the pest or weed control at 625 ppm with Piricularia oryzae turned out to be 71%.
Turning to `CCCN(CCOc1c(C)cc(C)cc1C)C(=O)c1cncnc1` [Compound 16], the pest or weed control at 250 ppm with Erysiphe polygoni worked out at 50%; in the assay with Plasmopara viticola, 7%; in assay [1] it was 83%; in the assay with Septoria apii, 38%; with Phytophthora infestans, 0%; in the assay with Uromyces phaseoli tipica it was 0%. For the same compound, in the assay with Piricularia oryzae, the pest or weed control at 625 ppm came out at 36%.
For the compound `CCCN(CCOc1ccc(Cl)cc1Cl)C(=O)c1cccnc1` [Compound 8], the pest or weed control at 250 ppm with Erysiphe polygoni was determined as 50%; with Plasmopara viticola, 0%; in assay [1] it was 40%; in the assay on Septoria apii, 45%; in the assay with Phytophthora infestans, 0%; in the assay with Uromyces phaseoli tipica, 3%. Further, the pest or weed control at 625 ppm in the assay with Piricularia oryzae came to 0%.
`CCCN(CCOc1c(C)cc(C)cc1C)C(=O)c1cccnc1` [Compound 14]: the pest or weed control at 250 ppm in the assay on Erysiphe polygoni stood at 100%; in the assay with Plasmopara viticola, 0%; in assay [1], 67%; with Septoria apii, 85%; in the assay with Phytophthora infestans it was 0%; in the assay on Uromyces phaseoli tipica, 0%. The pest or weed control at 625 ppm in the assay with Piricularia oryzae is 64%.
